PMC5975898, “Cationic porphyrins are tunable gatekeepers of the 20S proteasome” (Chemical Science, 2015)
pIC50, pKi: −log10 of the molar value. Read-outs that look alike come from different tables or passages of the source.

Tests used:
[1] = tested on: T1, human 20S proteasome ChT-L activity; experiment: Pre-steady-state kinetics of ChT-L inhibition (time course of fluorescent product, Runge-Kutta simulation); assay type: biochemical; conditions: 2 nM 20S, 100 μM Suc-LLVY-AMC; constrained to KI = k–I/k+I
T1 construct: purchased Boston Biochem
Protocol: The kinetic parameters of H2T4 binding to the CP have also been determined as a function of time (as described in Experimental). Fig. 7 reports the time evolution of the fluorescent product obtained by mixing at t = 0 both the substrate (100 μM final concentration) and H2T4 at different concentrations, as reported in the figure legend; the fluorescent signal was transformed into molar concentrations of fluorescent product through a calibration curve resulting from the complete processing of known concentration of substrate. […]
The interaction of H2T4 with 20S proteasome has been also investigated from the pre-steady-state kinetic standpoint. Briefly, these assays were performed without incubation time, by direct addition of different concentrations of H2T4 in samples where the Ch-L activity was already being monitored. The extent and the rate of inhibition were determined by following the time-dependent fluorescent signal of the cleaved substrate for 25 additional minutes. Data have been analyzed according to a second-order Runge–Kutta simulation procedure based on a simple competitive inhibition mechanism, such as in Scheme 1.
The time evolution of each species reported in Scheme 1 was calculated at discrete time intervals dt. […]

[2] = target: T2, human 20S proteasome T-L activity; experiment: 20S proteasome T-L activity inhibition assay (Ac-Arg-Leu-Arg-AMC); assay type: biochemical
T2 construct: purchased Boston Biochem
Protocol: (§1) Purified human 20S proteasome and the fluorogenic substrates Suc-LLVY-AMC, Z-Leu-Leu-Glu-AMC, and Ac-Arg-Leu-Arg-AMC used to test the ChT-L, PGPH-L, and T-L activity, respectively, were purchased from Boston Biochem (Cambridge, MA, USA).
(§2) Proteasome activity assays were performed in vitro by mixing 20S proteasome (2 nM) with 100 μM of the proper fluorogenic peptide in the assay buffer (i.e., 25 mM HEPES, 0.5 mM EDTA, pH 7.6) in a 384 multiwell black plate. […] A minimum of three replicates were performed for each data point. Data are expressed as normalized percentages of residual activity considering the slope of the control (fluorogenic peptide/proteasome in the absence of inhibitors) as 100% of proteasome activity. Dose–response plots of the residual proteasome activity in the presence of increasing concentration of inhibitor provides a quantitative estimate of its potency. […] The estimation of the IC50 is based on a nonlinear fit with the equation:2 [drawing 2]
(§3) The IC50 values and their standard errors were deduced from the fitting. […] The resulting catalytic parameter are Km, corresponding to the apparent affinity constant (or Michaelis–Menten constant) of substrate for the free enzyme (to form the ES complex), and kcat, corresponding to the velocity of the rate-limiting step during the enzymatic activity. […] The mechanism of inhibition of the 20S proteasome ChT-L activity by the inhibitors was analyzed by modified double-reciprocal plot, as from the following equations for the different inhibitory mechanisms:4a [drawing 4]

[3] = tested on: T1, human 20S proteasome ChT-L activity; experiment: Steady-state enzyme kinetics of ChT-L inhibition (Lineweaver-Burk plot); assay type: biochemical
Excerpt: Analysis of enzyme kinetics may provide valuable insights in the understanding of inhibition mechanisms. To this aim, we have addressed the inhibition mechanism of the title compound H2T4 by determining the ChT-L activity of the CP at different concentrations of substrate and inhibitor. Since H2T4 inhibits all the three proteolytic functions of the CP with a similar potency, one can assume that the inhibition mechanism is similar for all enzymatic activities.
Fig. 6 Double reciprocal Lineweaver–Burk plot of substrate enzymatic 20S processing in the absence of inhibitor (○) and in the presence of 0.5 μM (×), 1 μM (+), 3 μM (*), 10 μM (⊗) and 20 μM inhibitor (⊕) for various concentrations of the substrate Suc-LLVY-AMC (from 6 to 100 μM).
The IC50 values and their standard errors were deduced from the fitting. Data relative to CP activities at different substrate/inhibitor concentrations have been analyzed by a double reciprocal Lineweaver–Burk plot, according to the following equation:3 [drawing 3] where [E0] is the enzyme concentration, ν is the observed velocity (expressed as moles of substrate cleaved per time interval unit) and [S] is the substrate concentration. […] The mechanism of inhibition of the 20S proteasome ChT-L activity by the inhibitors was analyzed by modified double-reciprocal plot, as from the following equations for the different inhibitory mechanisms:4a [drawing 4] […]

[4] = target: T1, human 20S proteasome ChT-L activity; experiment: 20S proteasome ChT-L activity inhibition assay (Suc-LLVY-AMC); assay type: biochemical
Protocol: as §1, §2, §3

20S proteasome = tested on: T3, 20S proteasome; experiment: Stopped-flow UV spectroscopy of H2T4 binding to 20S proteasome; design: species or system human; conditions: 421 nm, 37 °C
T3 construct: purchased Boston Biochem
Excerpt: In order to find a closer correlation between experimental observations and molecular modeling we have carried out a kinetic investigation of the interaction between H2T4 and 20S proteasome by stopped-flow. […] Data have been analyzed according to the following equation1 [drawing 1] where ΔODobs is the observed optical density change at a given time, r is the total number of exponentials during the reaction time course, ΔODi is the optical density change corresponding to the exponential i, ki is the rate constant associated to the exponential i, t is the time.
Fig. 11 Optical density changes at 421 nm for the mixing at 37 °C of 1 nM 20S proteasome with different concentrations of H2T4, namely 1 μM (curve a), 2 μM (curve b) and 5 μM (curve c). Continuous lines correspond to the non-linear least-squares fitting of data with two exponentials according to eqn (1), employing parameters reported in Table 1.
However, it is important to outline that kinetics reported in Fig. 11 are characterized by a multiphasic pattern with different patterns of concentration dependence of the rate constants. […] Therefore, on the basis of molecular modeling studies, these kinetic data can be accounted for by assuming that there is a first faster interaction with the N-terminal tails of the α subunits, characterized by k1, likely corresponding to the first encountering of the porphyrin with the α-subunits plane in a perpendicular geometry (Fig. 10A). […] The values ≈0 for the dissociation rate constants (Table 1) simply means that the rate is very slow and the interaction is very strong.

[5] = target: T4, human 20S proteasome PGPH-L activity; experiment: 20S proteasome PGPH-L activity inhibition assay (Z-Leu-Leu-Glu-AMC); assay type: biochemical
T4 construct: purchased Boston Biochem
Protocol: as §1, §2, §3

[6] = read-out: IC50 T-L (Figure S1), figure inset, semi-log plot of residual CP activity
[7] = read-out: IC50 best-fit value, T-L activity (Table S1), nonlinear fit of dose-response plot
[8] = read-out: IC50 ChT-L (Figure S1), figure inset, semi-log plot of residual CP activity
[9] = read-out: IC50 best-fit value, ChT-L activity (Table S1), nonlinear fit of dose-response plot
[10] = read-out: IC50 PGPH-L (Figure S1), figure inset, semi-log plot of residual CP activity
[11] = read-out: IC50 best-fit value, PGPH-L activity (Table S1), nonlinear fit of dose-response plot

SMILES | k+I [1] | k–I [1] | pIC50 [2, 6] | pIC50 [2, 7] | inhibition mechanism ([3]; Lineweaver-Burk plot) | pKi ([3]; read-out: inhibitor affinity constant KI, Suc-LLVY-AMC 6 to 100 μM, fit with eqn (4a)) | pIC50 [4, 8] | pIC50 [4, 9] | off k1 (20S proteasome; 1 nM 20S, 1-5 μM H2T4) | off k2 (20S proteasome; 1 nM 20S, 1-5 μM H2T4) | on k1 (20S proteasome; 1 nM 20S, 1-5 μM H2T4) | on k2 (20S proteasome; 1 nM 20S, 1-5 μM H2T4) | k3 (20S proteasome; rate independent of porphyrin concentration) | pIC50 [5, 10] | pIC50 [5, 11]
C[n+]1ccc(-c2c3nc(c(-c4cc[n+](C)cc4)c4ccc([nH]4)c(-c4cc[n+](C)cc4)c4nc(c(-c5cc[n+](C)cc5)c5ccc2[nH]5)C=C4)C=C3)cc1 [H2T4, meso-tetrakis(4-N-methylpyridyl)-porphyrin] | 1.3 × 10^4 M^–1 s^–1 | 4.7 × 10^–3 s^–1 | 6.34 | 6.33 | competitive mechanism | 6.44 | 6.33 | 6.33 | ∼0 s^–1 | ∼0 s^–1 | 5.65 (±0.74) × 10^4 M^–1 s^–1 | 1.28 (±0.31) × 10^4 M^–1 s^–1 | 3.23 (±0.81) × 10^–3 s^–1 | 6.52 | 6.52
C[n+]1cccc(-c2c3nc(c(-c4ccc[n+](C)c4)c4ccc([nH]4)c(-c4ccc[n+](C)c4)c4nc(c(-c5ccc[n+](C)c5)c5ccc2[nH]5)C=C4)C=C3)c1 [meta-H2T4, meso-tetra(3-N-metil-pyridyl) porphyrin] |  |  | 5.94 | 5.94 |  |  | 6.03 | 6.03 |  |  |  |  |  | 6.68 | 6.68
